Common to all, as to type: cell-based
One assay concerns E. coli DH5α. Kind of assay: Antibacterial activity: MIC and growth curve against E. coli DH5α in 96-well plate. The note with it: minimal inhibitory concentration against E. coli DH5α; 96-well plate, 5×10^5 CFU/mL, 37° C., judged after 8 h. The method in brief:
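Log-phase DH5α (OD600 about 0.5, 37° C, 185 rpm in LB) was pelleted, resuspended in fresh LB and seeded at 5×10^5 CFU/mL with recombinant protein at 50, 25 and 12.5 μg/mL (two-fold series), in triplicate. Plates were shaken at 175 rpm, 37° C, and OD600 was read every 30 min. MIC was the lowest concentration with no growth.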

The next assay has as its system E. coli BL21. Kind of assay: MIC against Gram-negative bacteria: E. coli BL21. As to conditions: 5×10^5 CFU/mL. The procedure, abridged:
(§1)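 MIC = lowest concentration of recombinant protein showing no growth. Test proteins: purified human-derived EGF domain proteins, two-fold dilution series, three wells per concentration; inoculum 5×10^5 CFU/mL in LB; incubation 37° C with shaking at 175 rpm.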

The next assay relates to Pseudomonas aeruginosa. The experiment in a line: MIC against Gram-negative bacteria: Pseudomonas aeruginosa. As to conditions: 5×10^5 CFU/mL. The method in brief: as §1
The next assay has as its system Klebsiella pneumonia. The experiment in a line: MIC against Gram-negative bacteria: Klebsiella pneumonia. As to conditions: 5×10^5 CFU/mL. The method in brief:
as §1

Another assay concerns Enterobacter cloacae. Kind of assay: MIC against Gram-negative bacteria: Enterobacter cloacae. As to conditions: 5×10^5 CFU/mL. The procedure, abridged:
as §1

A further assay concerns Aeromonas hydrophila. Kind of assay: MIC against Gram-negative bacteria: Aeromonas hydrophila. As to conditions: 5×10^5 CFU/mL. The procedure, abridged:
as §1

In the next assay the test system is Citrobacter diversus. Kind of assay: MIC against Gram-negative bacteria: Citrobacter diversus. The note with it: 5×10^5 CFU/mL. The method in brief:
as §1

In the next assay the test system is Moraxella catarrhalis. Kind of assay: MIC against Gram-negative bacteria: Moraxella catarrhalis. The note with it: 5×10^5 CFU/mL. The method in brief:
as §1

Another assay concerns Proteus mirabilis. Kind of assay: MIC against Gram-negative bacteria: Proteus mirabilis. The note with it: 5×10^5 CFU/mL. The procedure, abridged:
as §1

The subject of the next assay is Proteus vulgaris. The experiment in a line: MIC against Gram-negative bacteria: Proteus vulgaris. As to conditions: 5×10^5 CFU/mL. The procedure, abridged:
as §1

The subject of the next assay is Serratia marcescens. Kind of assay: MIC against Gram-negative bacteria: Serratia marcescens. The note with it: 5×10^5 CFU/mL. The procedure, abridged:
as §1

Setting [1] is: 10 h cultivation at 37° C., two-fold serial dilution.
[2] abbreviates: E. coli BL21, 96-well plate, 37° C., 10 h.
The mark [3] stands for this setting: Pseudomonas aeruginosa, 96-well plate, 37° C., 10 h.
[4] abbreviates: Klebsiella pneumonia, 96-well plate, 37° C., 10 h.
Setting [5] is: Enterobacter cloacae, 96-well plate, 37° C., 10 h.
Where [6] appears, read: Aeromonas hydrophila, 96-well plate, 37° C., 10 h.
Setting [7] is: Citrobacter diversus, 96-well plate, 37° C., 10 h.
[8] abbreviates: Moraxella catarrhalis, 96-well plate, 37° C., 10 h.
[9] abbreviates: Proteus mirabilis, 96-well plate, 37° C., 10 h.
Setting [10] is: Proteus vulgaris, 96-well plate, 37° C., 10 h.
Setting [11] is: Serratia marcescens, 96-well plate, 37° C., 10 h.

For the substance “PRT592 (CDCDFRGTEGPGCDKASGRCLCRPGLTGPRCDQCQRGYCNRYPVCVA; listed as Homo sapiens)”, the MIC (as a rule, the least concentration at which growth counts as inhibited) against E. coli DH5α came to 50 µg/mL. Moreover, the “MIC against E. coli BL21” value in the assay with E. coli BL21 (96-well plate, 37° C., 10 h) stood at 12.5 µg/mL. The “MIC against P. aeruginosa” value against Pseudomonas aeruginosa (96-well plate, 37° C., 10 h) is 50 µg/mL. Further, the “MIC against K. pneumonia” value with Klebsiella pneumonia (96-well plate, 37° C., 10 h) turned out to be 12.5 µg/mL. In addition, the “MIC against E. cloacae” value against Enterobacter cloacae (96-well plate, 37° C., 10 h) was determined as 50 µg/mL. Also, in the assay with Aeromonas hydrophila (96-well plate, 37° C., 10 h), the “MIC against A. hydrophila” value is 12.5 µg/mL. For the same substance, the “MIC against C. diversus” value with Citrobacter diversus (96-well plate, 37° C., 10 h) turned out to be 50 µg/mL. For the same substance, the “MIC against M. catarrhalis” value against Moraxella catarrhalis (96-well plate, 37° C., 10 h) turned out to be 100 µg/mL. Moreover, the “MIC against P. mirabilis” value against Proteus mirabilis (96-well plate, 37° C., 10 h) turned out to be 50 µg/mL. Also, in the assay on Proteus vulgaris (96-well plate, 37° C., 10 h), the “MIC against P. vulgaris” value worked out at 25 µg/mL. Further, the “MIC against S. marcescens” value with Serratia marcescens (96-well plate, 37° C., 10 h) was determined as 12.5 µg/mL.

With “PRT1181 (KEAVCKQGCNLLHGGCTVPGECRCSYGWQGRFCD; listed as Homo sapiens)”, the minimal inhibitory concentration (MIC) with E. coli DH5α was determined as 12.5 µg/mL. Further, the “MIC E. coli BL21” value against E. coli BL21 (setting [1]) was 50 µg/mL. For the same substance, the “MIC P. aeruginosa” value with Pseudomonas aeruginosa (setting [1]) turned out to be 12.5 µg/mL. For the same substance, in the assay on Klebsiella pneumonia (setting [1]), the “MIC K. pneumonia” value was 50 µg/mL. The “MIC E. cloacae” value against Enterobacter cloacae (setting [1]) stood at 25 µg/mL. Besides, the “MIC A. hydrophila” value against Aeromonas hydrophila (setting [1]) came out at 25 µg/mL. Besides, in the assay with Citrobacter diversus (setting [1]), the “MIC C. diversus” value came to 12.5 µg/mL. Further, the “MIC M. catarrhalis” value with Moraxella catarrhalis (setting [1]) worked out at 50 µg/mL. Further, the “MIC P. mirabilis” value in the assay with Proteus mirabilis (setting [1]) worked out at 100 µg/mL. In addition, in the assay with Proteus vulgaris (setting [1]), the “MIC P. vulgaris” value stood at 50 µg/mL. Moreover, in the assay with Serratia marcescens (setting [1]), the “MIC S. marcescens” value stood at 25 µg/mL.

Consider “PRT419 (DIDECALPTGGHICSYRCINIPGSFQCSCPSSGYRLAPNGRNCQ; listed as Homo sapiens)”, for which the minimum inhibitory concentration (MIC) against E. coli DH5α stood at 25 µg/mL; against E. coli BL21 (E. coli BL21, 10 h cultivation at 37° C.), 12.5 µg/mL; with Pseudomonas aeruginosa (P. aeruginosa, 10 h cultivation at 37° C.), 25 µg/mL; against Klebsiella pneumonia (K. pneumonia, 10 h cultivation at 37° C.), 50 µg/mL; in the assay on Enterobacter cloacae (E. cloacae, 10 h cultivation at 37° C.), 25 µg/mL; in the assay with Aeromonas hydrophila (A. hydrophila, 10 h cultivation at 37° C.) it was 12.5 µg/mL. For the same substance, the minimum inhibitory concentration (MIC) in the assay with Citrobacter diversus (C. diversus, 10 h cultivation at 37° C.) was 25 µg/mL; in the assay on Moraxella catarrhalis (M. catarrhalis, 10 h cultivation at 37° C.), 50 µg/mL; against Proteus mirabilis (P. mirabilis, 10 h cultivation at 37° C.), 25 µg/mL; against Proteus vulgaris (P. vulgaris, 10 h cultivation at 37° C.), 12.5 µg/mL; with Serratia marcescens (S. marcescens, 10 h cultivation at 37° C.) it was 25 µg/mL.

The substance “PRT120 (CRPCQNGGLATVEGTHCLCHCKPYTFGAACE; listed as Homo sapiens)” displayed an MIC with E. coli DH5α of 12.5 µg/mL. In the assay with E. coli BL21 (setting [2]), the “MIC (μg/mL) E. coli BL21” value amounted to 12.5 µg/mL. The “MIC (μg/mL) P. aeruginosa” value against Pseudomonas aeruginosa (setting [3]) is 12.5 µg/mL. For the same substance, the “MIC (μg/mL) K. pneumonia” value with Klebsiella pneumonia (setting [4]) was 12.5 µg/mL. Moreover, in the assay with Enterobacter cloacae (setting [5]), the “MIC (μg/mL) E. cloacae” value turned out to be 12.5 µg/mL. The “MIC (μg/mL) A. hydrophila” value with Aeromonas hydrophila (setting [6]) amounted to 12.5 µg/mL. Moreover, in the assay on Citrobacter diversus (setting [7]), the “MIC (μg/mL) C. diversus” value was 12.5 µg/mL. The “MIC (μg/mL) M. catarrhalis” value in the assay with Moraxella catarrhalis (setting [8]) stood at 100 µg/mL. In addition, the “MIC (μg/mL) P. mirabilis” value in the assay with Proteus mirabilis (setting [9]) amounted to 12.5 µg/mL. In addition, the “MIC (μg/mL) P. vulgaris” value in the assay on Proteus vulgaris (setting [10]) came out at 25 µg/mL. The “MIC (μg/mL) S. marcescens” value against Serratia marcescens (setting [11]) turned out to be 12.5 µg/mL.

For “PRT471 (VCEPGCGAHGTCHEPNKCQCQEGWHGRHCN; listed as Homo sapiens)”, the MIC in the assay on E. coli DH5α came to 100 µg/mL. Further, in the assay on E. coli BL21 (96-well plate, 37° C., 10 h), the “MIC against E. coli BL21” value is 12.5 µg/mL. The “MIC against P. aeruginosa” value with Pseudomonas aeruginosa (96-well plate, 37° C., 10 h) stood at 12.5 µg/mL. Also, the “MIC against K. pneumonia” value against Klebsiella pneumonia (96-well plate, 37° C., 10 h) stood at 12.5 µg/mL. In the assay on Enterobacter cloacae (96-well plate, 37° C., 10 h), the “MIC against E. cloacae” value came to 12.5 µg/mL. The “MIC against A. hydrophila” value in the assay on Aeromonas hydrophila (96-well plate, 37° C., 10 h) was found to be 12.5 µg/mL. The “MIC against C. diversus” value in the assay with Citrobacter diversus (96-well plate, 37° C., 10 h) worked out at 12.5 µg/mL. In addition, in the assay with Moraxella catarrhalis (96-well plate, 37° C., 10 h), the “MIC against M. catarrhalis” value came out at 12.5 µg/mL. Besides, in the assay with Proteus mirabilis (96-well plate, 37° C., 10 h), the “MIC against P. mirabilis” value stood at 12.5 µg/mL. Further, the “MIC against P. vulgaris” value against Proteus vulgaris (96-well plate, 37° C., 10 h) was 25 µg/mL. The “MIC against S. marcescens” value with Serratia marcescens (96-well plate, 37° C., 10 h) stood at 12.5 µg/mL.

With “PRT1291 (PIHACISNPCKHGGTCHLKEGEEDGFWCICADGFEGENCE; listed as Homo sapiens)”, in the assay with E. coli DH5α, the MIC came to 50 µg/mL. For the same substance, in the assay with E. coli BL21 (setting [2]), the “MIC against E. coli BL21” value worked out at 100 µg/mL. Moreover, in the assay with Pseudomonas aeruginosa (setting [3]), the “MIC against P. aeruginosa” value came to 25 µg/mL. Besides, in the assay on Klebsiella pneumonia (setting [4]), the “MIC against K. pneumonia” value amounted to 50 µg/mL. For the same substance, the “MIC against E. cloacae” value in the assay on Enterobacter cloacae (setting [5]) worked out at 25 µg/mL. Besides, the “MIC against A. hydrophila” value in the assay with Aeromonas hydrophila (setting [6]) worked out at 12.5 µg/mL. The “MIC against C. diversus” value against Citrobacter diversus (setting [7]) turned out to be 50 µg/mL. Also, in the assay with Moraxella catarrhalis (setting [8]), the “MIC against M. catarrhalis” value is 12.5 µg/mL. For the same substance, in the assay on Proteus mirabilis (setting [9]), the “MIC against P. mirabilis” value stood at 50 µg/mL. Also, the “MIC against P. vulgaris” value against Proteus vulgaris (setting [10]) stood at 12.5 µg/mL. Also, the “MIC against S. marcescens” value with Serratia marcescens (setting [11]) turned out to be 12.5 µg/mL.

The values above are taken from patent publication US9833497B2, “Human originated EGF domain proteins and use of the same” (CHENGDU SOURCEBIO LIMITED-LIABILITY COMPANY, priority 2013, dated 2017).
